pIC50: −log10 of the molar value.
Experiments:
[1] = molecular target: T1, human TRPM8 (Homo sapiens, UniProt Q7Z2W7); assay: Luminescence readout assay for measuring intracellular calcium, icilin activation; type: cell-based; settings: CHO cells expressing human TRPM8, aequorin luminescence, 1 μM icilin activation; read-out: hTRPM8 IC50
T1 construct: expressed in transfected cells; host or cells: Chinese hamster ovary (CHO) cells, T-REx tetracycline-inducible system, co-transfected with aequorin
T1 sequence (Q7Z2W7 whole entry): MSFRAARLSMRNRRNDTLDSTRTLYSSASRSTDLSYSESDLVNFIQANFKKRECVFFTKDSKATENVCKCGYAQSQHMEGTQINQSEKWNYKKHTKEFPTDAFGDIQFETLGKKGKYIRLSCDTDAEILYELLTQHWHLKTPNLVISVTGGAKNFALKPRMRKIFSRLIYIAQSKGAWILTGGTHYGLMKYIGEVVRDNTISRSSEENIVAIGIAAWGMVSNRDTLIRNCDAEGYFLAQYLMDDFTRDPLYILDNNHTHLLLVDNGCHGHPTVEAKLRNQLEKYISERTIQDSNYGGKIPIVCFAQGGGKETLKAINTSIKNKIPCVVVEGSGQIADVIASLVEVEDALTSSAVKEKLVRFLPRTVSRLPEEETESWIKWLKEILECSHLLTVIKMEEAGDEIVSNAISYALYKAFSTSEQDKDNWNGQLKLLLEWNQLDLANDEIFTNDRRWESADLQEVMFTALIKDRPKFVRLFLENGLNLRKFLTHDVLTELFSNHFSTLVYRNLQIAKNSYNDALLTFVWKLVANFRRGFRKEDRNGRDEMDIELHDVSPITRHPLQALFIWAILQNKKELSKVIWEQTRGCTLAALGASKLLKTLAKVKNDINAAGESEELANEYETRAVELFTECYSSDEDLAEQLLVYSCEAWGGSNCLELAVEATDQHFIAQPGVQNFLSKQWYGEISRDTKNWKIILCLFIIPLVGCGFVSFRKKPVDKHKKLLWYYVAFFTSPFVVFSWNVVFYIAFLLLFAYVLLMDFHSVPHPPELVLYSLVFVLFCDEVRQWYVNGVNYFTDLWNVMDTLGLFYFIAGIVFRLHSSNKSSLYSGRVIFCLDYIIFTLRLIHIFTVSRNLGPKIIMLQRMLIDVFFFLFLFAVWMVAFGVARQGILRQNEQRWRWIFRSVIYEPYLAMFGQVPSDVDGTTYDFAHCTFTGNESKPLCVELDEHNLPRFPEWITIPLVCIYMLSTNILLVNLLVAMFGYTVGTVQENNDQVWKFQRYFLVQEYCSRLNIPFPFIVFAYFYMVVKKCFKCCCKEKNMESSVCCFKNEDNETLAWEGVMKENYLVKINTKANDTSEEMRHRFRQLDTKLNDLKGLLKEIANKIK
Method in brief: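 The read-out was luminescence reporting intracellular calcium, recorded by a CCD-based luminometer. Compounds were preincubated for 2.5 min before agonist challenge with 1 μM icilin. Human TRPM8 was expressed in a stable T-REx CHO line, induced with 0.5 μg/mL tetracycline the day before.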

[2] = tested on: icilin induced wet-dog shakes; assay: Inhibition of icilin induced shaking (wet-dog shakes) in rats; type: in vivo; settings: Rattus norvegicus, po; dose 1 mg/kg p.o., 2 h before icilin; male Sprague Dawley rats; shakes counted for 30 min post-icilin
Description: Inhibition of Icilin Induced Shaking in Rats
Example compounds at doses ranging from 0.01 to 3 mg/kg (p.o, suspended in 5% Tween80/Oralplus or suspended in 2% HPMC-1% Tween-80 pH2.2 with MSA, 5 mL/kg) were administered to male Sprague Dawley rats (200-300 g, Harlan, n=6-8/treatment) 2 h before icilin to assess the ability to block the spontaneous wet-dog shake phenomena induced by icilin (i.p., suspended in 100% PEG400 at 0.5 mg/kg, 1 mL/kg or p.o., suspended in 2% HPMC-1% Tween-80 at 3 mg/kg, 2.5 mL/kg). Spontaneous wet-dog shakes were counted manually by two blinded observers or using LABORAS automation (Metris) for 30 min post-icilin.

Structure (SMILES)	pIC50 [1]	inhibition in vivo at 1 mg/kg [2] [%]
O=C(N[C@@H](c1ccc(OC(F)(F)F)cc1F)c1ncccc1F)c1ccc(=O)[nH]c1 [Example 386, (S)-N-((2-fluoro-4-(trifluoromethoxy)phenyl)(3-fluoropyridin-2-yl)methyl)-6-oxo-1,6-dihydropyridine-3-carboxamide 2,2,2-trifluoroacetate]	7.98	97
Cn1cc(C(=O)N[C@@H](c2ccc(OC(F)(F)F)c(F)c2)c2ncccc2F)ccc1=O [Example 103, (S)-N-((3-fluoro-4-(trifluoromethoxy)phenyl)(3-fluoropyridin-2-yl)methyl)-1-methyl-6-oxo-1,6-dihydropyridine-3-carboxamide]	8.11	97
O=C1Cc2cc(C(=O)N[C@@H](c3ccc(OC(F)(F)F)cc3)c3ncccc3F)ccc2N1 [Example 91, (S)-N-((3-fluoropyridin-2-yl)(4-(trifluoromethoxy)phenyl)methyl)-2-oxoindoline-5-carboxamide]	7.86	100

From patent US8710043B2, “TRPM8 antagonists and their use in treatments” (Amgen Inc., priority 2011, dated 2014)
